The record followed here is article PMC11015056 (ACS Infectious Diseases, 2024).

The target in assay [1] is T1, GyrA^S91F/D95G N. gonorrhoeae gyrase (Neisseria gonorrhoeae, UniProt P22118+P48371, D95G/S91F).
T1 construct: His-tag; purchased GenScript
Nature of the assay: Gyrase-catalyzed DNA supercoiling, GyrA S91F/D95G gyrase. The following applies: ± standard error of the mean, read-out: IC50, inhibition of DNA supercoiling. Format: biochemical.

The next assay addresses WT N. gonorrhoeae gyrase (Neisseria gonorrhoeae, UniProt P22118+P48371). The experiment in a line: Gyrase-mediated DNA cleavage, WT gyrase. The settings on record: GyrA WT; induced by 8-methyl-2,4-quinazolinedione.
Assay [2] deals with WT N. gonorrhoeae topoisomerase IV (Neisseria gonorrhoeae, UniProt P48374). The experiment in a line: Topoisomerase IV-catalyzed DNA decatenation, WT. Format: biochemical. As for the experimental part: DNA decatenation assays were based on previously published protocols by Anderson et al.[79] and Aldred et al.[30] Assays contained 10 nM WT, 20 nM ParC^S87N, 35 nM ParC^E91G, or 35 nM ParC^S87N/E91GN. gonorrhoeae topoisomerase IV, 5 nM kDNA, and 1 mM ATP in 20 μL of 40 mM HEPES-KOH (pH 7.6), 25 mM NaCl, 100 mM KGlu, and 10 mM Mg(OAc)2. Assay mixtures were incubated at 37 °C for 10 min with WT, 15 min with ParC^S87N, and 30 min with ParC^E91G and ParC^S87N/E91GN. gonorrhoeae topoisomerase IV, which represents the minimum time required to completely decatenate the kDNA in the absence of a drug. Reactions were stopped, subjected to electrophoresis, and visualized as described for gyrase-catalyzed DNA supercoiling.

For assay [3], the target named is T2, ParC^E91G N. gonorrhoeae topoisomerase IV (Neisseria gonorrhoeae, UniProt P48374, E91G).
T2 sequence (P48374 1-768 E91G): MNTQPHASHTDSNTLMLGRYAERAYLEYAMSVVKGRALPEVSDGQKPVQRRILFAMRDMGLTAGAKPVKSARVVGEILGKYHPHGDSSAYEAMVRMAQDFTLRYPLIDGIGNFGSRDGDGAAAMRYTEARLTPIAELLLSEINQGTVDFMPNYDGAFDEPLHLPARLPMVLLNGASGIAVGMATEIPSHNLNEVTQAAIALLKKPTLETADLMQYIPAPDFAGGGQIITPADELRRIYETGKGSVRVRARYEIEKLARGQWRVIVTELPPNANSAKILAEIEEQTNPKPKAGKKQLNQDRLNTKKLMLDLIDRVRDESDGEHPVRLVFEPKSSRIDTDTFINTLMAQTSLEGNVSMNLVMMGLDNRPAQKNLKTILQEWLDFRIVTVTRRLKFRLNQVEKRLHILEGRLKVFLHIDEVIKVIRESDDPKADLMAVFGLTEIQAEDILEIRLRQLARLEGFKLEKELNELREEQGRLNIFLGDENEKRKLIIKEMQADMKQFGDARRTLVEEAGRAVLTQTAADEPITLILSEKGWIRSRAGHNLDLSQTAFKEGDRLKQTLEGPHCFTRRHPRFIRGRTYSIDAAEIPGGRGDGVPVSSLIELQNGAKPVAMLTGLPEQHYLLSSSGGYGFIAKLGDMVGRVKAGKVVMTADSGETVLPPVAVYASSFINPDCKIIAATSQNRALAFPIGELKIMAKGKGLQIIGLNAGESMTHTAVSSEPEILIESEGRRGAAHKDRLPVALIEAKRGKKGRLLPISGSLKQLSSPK
The experiment in a line: Topoisomerase IV-catalyzed DNA decatenation, ParC E91G. Format: biochemical.

Assay [4] has as its target T3, ParC^S87N/E91G N. gonorrhoeae topoisomerase IV (Neisseria gonorrhoeae, UniProt P48374, E91G/S87N).
T3 sequence (P48374 1-768 S87N/E91G): T2 sequence (P48374 1-768 E91G)
Nature of the assay: Topoisomerase IV-catalyzed DNA decatenation, ParC S87N/E91G. Format: biochemical.

Assay [5] concerns the target T4, ParC^S87N N. gonorrhoeae topoisomerase IV (Neisseria gonorrhoeae, UniProt P48374, S87N).
T4 sequence (P48374 1-768 S87N): T2 sequence (P48374 1-768 E91G)
Nature of the assay: Topoisomerase IV-catalyzed DNA decatenation, ParC S87N. In kind it is biochemical.

T1 sequence (P48371 whole entry, looked up, stated change not applied): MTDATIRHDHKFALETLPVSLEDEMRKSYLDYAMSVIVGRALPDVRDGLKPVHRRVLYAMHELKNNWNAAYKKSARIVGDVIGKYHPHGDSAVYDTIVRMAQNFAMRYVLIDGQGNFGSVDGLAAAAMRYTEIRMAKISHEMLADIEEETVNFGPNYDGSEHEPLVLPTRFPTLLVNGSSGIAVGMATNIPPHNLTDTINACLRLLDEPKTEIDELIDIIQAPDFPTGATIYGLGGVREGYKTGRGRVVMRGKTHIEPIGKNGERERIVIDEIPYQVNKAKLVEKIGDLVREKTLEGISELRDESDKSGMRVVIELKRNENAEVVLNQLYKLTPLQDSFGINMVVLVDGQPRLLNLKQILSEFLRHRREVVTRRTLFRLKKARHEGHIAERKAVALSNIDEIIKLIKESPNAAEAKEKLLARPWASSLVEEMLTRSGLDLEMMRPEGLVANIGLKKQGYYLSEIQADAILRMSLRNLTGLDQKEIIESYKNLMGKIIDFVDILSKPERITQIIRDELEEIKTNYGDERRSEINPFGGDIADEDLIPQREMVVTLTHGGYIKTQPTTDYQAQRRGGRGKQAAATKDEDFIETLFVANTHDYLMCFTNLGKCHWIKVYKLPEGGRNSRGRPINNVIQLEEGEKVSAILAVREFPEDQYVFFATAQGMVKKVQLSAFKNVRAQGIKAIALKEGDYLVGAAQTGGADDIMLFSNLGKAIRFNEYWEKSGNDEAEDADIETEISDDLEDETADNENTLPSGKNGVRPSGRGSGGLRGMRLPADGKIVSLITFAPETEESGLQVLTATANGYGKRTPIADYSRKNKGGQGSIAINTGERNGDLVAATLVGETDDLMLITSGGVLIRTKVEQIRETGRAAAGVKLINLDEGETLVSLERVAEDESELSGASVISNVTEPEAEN
T1 sequence (P22118 whole entry, stated change not applied): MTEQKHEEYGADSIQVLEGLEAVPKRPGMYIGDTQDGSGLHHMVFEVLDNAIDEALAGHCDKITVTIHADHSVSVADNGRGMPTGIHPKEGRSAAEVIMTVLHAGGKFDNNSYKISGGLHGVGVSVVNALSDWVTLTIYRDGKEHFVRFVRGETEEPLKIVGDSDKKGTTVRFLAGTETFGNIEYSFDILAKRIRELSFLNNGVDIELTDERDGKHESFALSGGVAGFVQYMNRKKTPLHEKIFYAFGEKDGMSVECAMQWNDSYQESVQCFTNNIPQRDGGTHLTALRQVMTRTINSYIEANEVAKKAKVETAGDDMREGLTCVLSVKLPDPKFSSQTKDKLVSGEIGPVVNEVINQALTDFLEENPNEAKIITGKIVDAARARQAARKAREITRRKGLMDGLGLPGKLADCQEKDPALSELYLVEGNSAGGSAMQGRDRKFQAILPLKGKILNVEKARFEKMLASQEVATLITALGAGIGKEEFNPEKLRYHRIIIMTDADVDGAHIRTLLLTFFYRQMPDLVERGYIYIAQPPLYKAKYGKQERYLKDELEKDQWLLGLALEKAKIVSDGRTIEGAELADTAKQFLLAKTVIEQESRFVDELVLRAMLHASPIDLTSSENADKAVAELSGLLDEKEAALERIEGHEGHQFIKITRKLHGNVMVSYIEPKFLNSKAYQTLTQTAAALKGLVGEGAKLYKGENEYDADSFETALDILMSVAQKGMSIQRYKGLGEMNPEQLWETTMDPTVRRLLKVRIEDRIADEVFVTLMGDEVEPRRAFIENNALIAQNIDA
Chain of WT N. gonorrhoeae gyrase (P48371 whole entry): as the sequence (P48371 whole entry, looked up, stated change not applied) above
Chain of WT N. gonorrhoeae gyrase (P22118 whole entry): as the sequence (P22118 whole entry, stated change not applied) above

As to `Cc1c(N2CC[C@@H](CN)C2)c(F)cc2c(=O)n(N)c(=O)n(C3CC3)c12` [8-Me-2,4-QD, 3-Amino-7-[(3S)-3-(aminomethyl)-1-pyrrolidinyl]-1-cyclopropyl-6-fluoro-8-methyl-2,4(1H,3H)-quinazolinedione], the IC50 in assay [1] was 19.7 µM. Also, on WT N. gonorrhoeae gyrase, the “Max % DSB” value is 28.9%.

Take `O=C(O)c1cn(C2CC2)c2cc(N3CCNCC3)c(F)cc2c1=O` [Ciprofloxacin]: the concentration for half-maximal inhibition (IC50) was 13.7 µM in assay [2], 301 ± 23.8 µM in assay [3], above 500 µM in assay [4] and 16.4 µM in assay [5].

By IC50 is commonly meant the point on the concentration scale where inhibition reaches its midpoint.
